In publication PMC8382845, “High-content image-based analysis and proteomic profiling identifies Tau phosphorylation inhibitors in a human iPSC-derived glutamatergic neuronal model of tauopathy” (Scientific Reports, 2021):

Target: T1, GSK3α (Homo sapiens, UniProt P49840)
T1 construct: gene GSK3A
T1 sequence (P49840 2-483): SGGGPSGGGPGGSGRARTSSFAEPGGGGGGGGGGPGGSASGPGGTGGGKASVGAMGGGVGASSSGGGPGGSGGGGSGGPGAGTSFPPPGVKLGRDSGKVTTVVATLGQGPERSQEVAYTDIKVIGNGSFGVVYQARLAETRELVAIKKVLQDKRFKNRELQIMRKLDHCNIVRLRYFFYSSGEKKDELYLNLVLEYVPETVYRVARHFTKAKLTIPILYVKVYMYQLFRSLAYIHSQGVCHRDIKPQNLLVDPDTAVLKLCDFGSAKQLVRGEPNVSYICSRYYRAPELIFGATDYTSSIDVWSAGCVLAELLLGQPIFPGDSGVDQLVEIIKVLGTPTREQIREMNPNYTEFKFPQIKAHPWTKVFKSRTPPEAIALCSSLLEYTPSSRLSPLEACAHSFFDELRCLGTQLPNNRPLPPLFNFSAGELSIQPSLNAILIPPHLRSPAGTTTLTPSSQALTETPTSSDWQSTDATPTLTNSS

Cc1c[nH]c(-c2cnc(NCCNc3ccc(C#N)cn3)nc2-c2ccc(Cl)cc2Cl)n1 [CHIR-99021]
MIB-MS chemoproteomic competition (loss of kinase binding to inhibitor beads) af: This effect of CHIR-99021 was similar between the two GSK isoforms, GSK3α and GSK3β (Fig. 5C) in both NPC and neurons
